Data as given in patent US11040082B2, “Compositions and methods for treating colorectal cancer” (Georgia State University Research Foundation, Inc., priority 2014, dated 2021).

Experiments:
tumor growth = settings: several studies; cited from earlier work
colon adenocarcinoma = settings: cited from earlier work
[1] = test system: myeloid leukemia C1498 cells; settings: in vivo; cited from earlier work
[2] = test system: PepT1 expression and colitis in IL-10-/- mice; settings: compared to vehicle-treated; cited from earlier work
[3] = test system: AOM/DSS-induced colon tumorigenesis in PepT1-KO mice; assay: AOM/DSS-induced colitis-associated cancer model, PepT1-KO mice, with or without KPV; format: in vivo, mouse; settings: AOM 15 mg/kg, 3% DSS, + KPV vs AOM/DSS only
Method: (§1) Colonic tumor model: Colon cancer was induced as previously described with some modifications (Greten et al., Cell 118:285-96, 2004). Mice were intraperitoneally injected with AOM (Sigma-Aldrich, St. Louis, Mo.) diluted in PBS (10 mg/kg) and maintained on a regular diet and water for 5 days. The mice were then subjected to two cycles of DSS treatment (MP Biomedicals, Solon, Ohio, USA), with each cycle consisting of 2.5% DSS for 7 days followed by a 14-day recovery period with regular water. Mice were then sacrificed and their colons isolated for further experimentation. Colonic tumors were counted and measured using a dissecting microscope. The total sum of the area of each colon covered by tumor tissue was expressed as the tumor burden index.
(§2) In experiments designed to test the efficacy of KPV (Biopeptide Co. Inc., San Diego, Calif.), the above protocol was slightly modified. Five days after AOM injections (10 mg/kg to WT mice or 15 mg/kg to PepT1-KO mice), the WT and PepT1-KO mice were given 3% DSS with or without KPV for seven days. Following the 7-day treatment, the mice were given normal drinking water for 14 days, then 2.5% DSS (WT) or 3% DSS (PepT1-KO mice) with or without KPV for seven days. Following the 7-day treatment, the mice were given normal drinking water for 14 days. The KPV-treated group received 100 μM KPV in their drinking water along with the DSS during both DSS cycles.
(§3) Therefore, we hypothesized that KPV may help prevent colon tumorigenesis in the AOM/DSS-induced CAC model. To test this hypothesis, WT mice were treated with AOM/DSS or AOM/DSS+KPV (during the DSS cycles). […] In order to investigate any putative protective effect of KPV administration in pepT1-KO mice, the colitis-associated cancer protocol was slightly modified based on the relatively low penetrance of the disease in pepT1-deficient animals (FIG. 3). AOM concentration was increased to 15 mg/kg and DSS was increased to 3% in order to favor tumor development. […] Upregulation of colonic PepT1 may lead to increased interactions between bacterial peptides and intracellular innate immune receptors, including NOD receptors, thus triggering downstream activation of proinflammatory signaling pathways (Dalmasso et. al., Gastroenterology 141:1334-45, 2011; Laroui et al., J. Biol. Chem. 286:31003-13, 2011). Furthermore, previous studies have shown that bacteria are required for the initiation of colonic inflammation and subsequent dysplasia and tumorigenesis (Itzkowitz and Yio, Am. J. Physiol. Gastrointest. Liver Physiol. 287:G7-17, 2004). Future studies are warranted to assess the role of PepT1-bacterial interactions in these processes, and whether such interactions contribute to the progression of CAC.

DSS-induced colitis = settings: previous studies; cited from earlier work
[4] = test system: AOM/DSS-induced colon tumorigenesis; assay: AOM/DSS-induced colitis-associated cancer (CAC) model, WT mice, with or without KPV; format: in vivo, mouse
Method: as §1, §2
H&E Staining of Colonic Tissue: Mouse colons were fixed in 10%-buffered formalin for 24 hours at room temperature and then embedded in paraffin. Tissues were sectioned at 5-μm thickness and stained with hematoxylin & eosin (H&E) using standard protocols. Images were acquired using an Olympus microscope equipped with a DP-23 digital camera.
Immunohistochemistry: Mouse colonic tissues were fixed in formalin and paraffin-embedded. For Ki67, β-catenin and PepT1 staining, sections were deparaffinized. Slides were incubated in sodium citrate buffer (pH 6.0) and cooked in a pressure cooker for 10 minutes for antigen retrieval. Sections were then blocked with 5% goat serum in TBS followed by incubation for one hour with anti-Ki67 (1:100, Vector Laboratories, Burlingame, Calif.), anti-β-catenin (1:1000, Cell Signaling, Danvers, Mass.) or anti-mPepT1 at 37° C. After washing with TBS, sections were treated with appropriate biotinylated secondary antibodies for 30 minutes at 37° C., and color development was performed using the Vectastain ABC kit (Vector Laboratories). Sections were then counterstained with hematoxylin, dehydrated, and then coverslipped. Images were acquired using an Olympus microscope equipped with DP-23 Digital camera. Ki67-positive cells were counted per crypt.
as §3, with “Future studies are warranted to assess the role of PepT1-bacterial interactions in these processes, and whether such interactions contribute to the progression of CAC.” left out

[5] = test system: Caco2-BBE and Jurkat cells; settings: stimulation with pro-inflammatory cytokines, co-treated with KPV; cited from earlier work
PepT1 = biological target: T1, PepT1 (Homo sapiens, UniProt P46059); settings: in vitro, Caco-2/BBE cells; cited from earlier work
T1 construct: endogenous in cells; host or cells: Caco-2/BBE cells
T1 sequence (P46059 1-708): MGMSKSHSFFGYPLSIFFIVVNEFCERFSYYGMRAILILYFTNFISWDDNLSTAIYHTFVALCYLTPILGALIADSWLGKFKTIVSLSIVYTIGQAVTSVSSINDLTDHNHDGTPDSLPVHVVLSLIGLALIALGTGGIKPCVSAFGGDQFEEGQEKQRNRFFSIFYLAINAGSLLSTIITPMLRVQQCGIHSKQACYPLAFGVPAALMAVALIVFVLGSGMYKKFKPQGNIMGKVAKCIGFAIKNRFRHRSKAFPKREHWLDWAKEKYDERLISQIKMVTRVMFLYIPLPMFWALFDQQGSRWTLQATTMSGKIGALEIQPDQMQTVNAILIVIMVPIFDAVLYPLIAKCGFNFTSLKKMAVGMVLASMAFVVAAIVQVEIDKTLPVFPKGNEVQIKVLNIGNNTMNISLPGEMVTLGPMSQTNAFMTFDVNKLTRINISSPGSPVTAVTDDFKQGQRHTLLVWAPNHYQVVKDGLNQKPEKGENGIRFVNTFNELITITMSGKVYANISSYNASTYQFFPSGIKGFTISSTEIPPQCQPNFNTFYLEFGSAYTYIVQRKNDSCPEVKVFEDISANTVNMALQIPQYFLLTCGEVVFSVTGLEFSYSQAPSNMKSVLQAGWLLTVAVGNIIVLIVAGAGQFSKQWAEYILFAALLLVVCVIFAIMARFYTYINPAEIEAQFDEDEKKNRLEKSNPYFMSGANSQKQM

[6] = test system: tumorigenesis in IL-10-deficient mice; settings: even after colitis had developed; cited from earlier work
[7] = AOM/DSS + 100 μM KPV in drinking water during both DSS cycles vs AOM/DSS only
[8] = AOM/DSS + 100 μM KPV vs AOM/DSS only

CC(C)C[C@H](NC(=O)[C@@H](O)[C@H](N)Cc1ccccc1)C(=O)O [bestatin]
cell proliferation (tumor growth): decreases cell proliferation | tumor growth (tumor growth): ameliorates tumor growth | growth of colon adenocarcinoma (colon adenocarcinoma): inhibits the growth of colon adenocarcinoma | growth of myeloid leukemia C1498 cells [1]: decreases the growth

Lactobacillus plantarum
PepT1 expression and activity [2]: reduced PepT1 expression and activity | colitis [2]: attenuated colitis

Lys-Pro-Val [KPV]
protection from tumorigenesis [3]: not protected from tumorigenesis | tumor burden [3]: remained unchanged | tumor numbers [3]: remained unchanged | tumor sizes [3]: remained unchanged | inflammation and DSS-induced colitis (DSS-induced colitis): decreases inflammation and attenuates DSS-induced colitis | colon tumorigenesis: overall colonic tumor burden [4, 7]: drastic decreases | colon tumorigenesis: tumor numbers [4, 7]: drastic decreases | colon tumorigenesis: tumor sizes [4, 7]: drastic decreases | aberrant crypt foci (H&E-stained colonic sections) [4, 8]: fewer aberrant crypt foci | body weight loss during DSS treatment [4, 8]: lost similar amounts of weight | cellular infiltration (H&E-stained colonic sections) [4, 8]: decreased cellular infiltration | epithelial cell proliferation (Ki67+ cells/crypt) [4, 8]: less epithelial cell proliferation | inflammation (H&E-stained colonic sections) [4, 8]: decreased inflammation | NF-κB activation [5]: attenuated NF-κB activation | pro-inflammatory cytokine production [5]: decreased pro-inflammatory cytokine production | transport via PepT1 (PepT1): transported via PepT1

B1: IL-10: exogenous anti-inflammatory cytokine IL-10 administered to IL-10-deficient mice (protein, UniProt P18893 19-178, looked up)
Interleukin-10: SRGQYSREDNNCTHFPVGQSHMLLELRTAFSQVKTFFQTKDQLDNILLTDSLMQDFKGYLGCQALSEMIQFYLVEVMPQAEKHGPEIKEHLNSLGEKLKTLRMRLRRCHRFLPCENKSKAVEQVKSDFNKLQDQGVYKAMNEFDIFINCIEAYMMIKMKS
tumorigenesis [6]: tumorigenesis was decreased
